Test results as given in patent publication US12492208B2, “Crystal of pyrimidine compound” (TAIHO PHARMACEUTICAL CO., LTD., priority 2020, dated 2025).

What was measured:
[1] = non-clinical tests; substrates of p-gp or Bcrp; cited from earlier work
brain metastatic cancer = settings: clinical tests; cited from earlier work
[2] = Blood concentration measurement test; assay type: in vivo, female rats (Crl:CD (SD)); settings: rat, oral
Experimental: Blood concentration measurement tests were conducted for the type I crystal of compound (I), the type II crystal of compound (I), and the type II crystal of compound (I) with 1 equivalent of fumarate obtained in the Examples. Specifically, 0.5% HPMC containing 0.1N hydrochloric acid was used for the type I crystal of compound (I) and 0.5% HPMC was used for the type II crystal of compound (I) and the type II crystal of compound (I) with 1 equivalent of fumaric acid to convert each crystal into the compound (I) (free-form) in terms of molecular weight so as to prepare suspensions of 100 mg/10 mL and 300 mg/10 mL. These administration solutions were orally administered to female rats (Crl:CD (SD), Charles River Laboratories Japan, Inc.) kept under feeding conditions at a volume of 10 mL/kg body weight using an oral administration sonde. After administration, the rats were returned to the rat cage and their conditions were checked. Water and feeding were freely available in the cage. At 0.5, 1, 2, 4, and 6 hours after administration, the rats were anesthetized with isoflurane, and approximately 80 μL of blood was collected from the jugular vein using a heparin-coated syringe and an injection needle (25 G).
The collected blood was ice-cooled and plasma was separated by centrifugation. After the blood collection was completed, the rats were returned to the rat cage and the state after awakening of anesthesia was checked. After the final blood collection, the depth of isoflurane anesthesia was checked. Then, the limbs were fixed in a supine position with a small animal experiment holding apparatus, and the abdomen was opened such that each rat was euthanized by exsanguination through an incision in the abdominal aorta and vena cava.
AUC0-6 hr (Area under the blood concentration-time curve for 0 to 6 hours after administration calculated by the trapezoidal method), Cmax (maximum blood concentration), and Tmax (time to reach maximum blood concentration) were calculated from the concentration of the compound (I) in each plasma measured by the MRM method using LC/MS/MS and quantified from the calibration curve using Phoenix WinNonlin (v6.4.0,Certara USA, Inc.).

[3] = Dynamic vapor sorption (DVS) test; assay type: physicochemical; settings: for Weight change rate, Adsorption / Weight change rate, Desorption: 25° C.
Experimental: Dynamic vapor sorption tests were conducted using a type II crystal of compound (I) with1 equivalent of fumaric acid, a free-form type II crystal of the same, a free-form type I crystal of the same, a type V crystal of the same with 1 equivalent of fumaric acid, and a crystal of the same with 1 equivalent of L-tartaric acid obtained in the Examples and Reference Examples.
The dynamic vapor sorption test was conducted for measurement according to the following conditions.
Approximately 10 mg of each sample was packed in a dedicated quartz holder, and the weight of the sample at each humidity was continuously measured and recorded under the following conditions.

Solid stability test = assay type: physicochemical
Experimental: The free-form type II crystals of the compound (I) and type II crystals thereof with 1 equivalent of fumaric acid obtained in the Examples and Comparative Examples were evaluated for solid stability after storage for 4 weeks. • Storage condition: 60° C. (closed system) • Storage period: 4 weeks • Stored amount: Approximately 30 mg • Storage container: Glass bottle
Approximately 1 mg of a sample was weighed, dissolved in approximately 1 mL of a liquid mixture of water/acetonitrile (1:1), and 5 μL of this solution was accurately measured. Changes in the amount of related substances (the amount of substances detected other compound (I)) were analyzed by HPLC by the following method. Hplc Analysis Method (Stability Test)
The amount of related substances in the sample solution was measured by HPLC analysis. Handling of the apparatuses, including data processing, was in accordance with the methods and procedures instructed for each apparatus. • Column: XSelect CSH C18 (4.6×150 mm, 3.5 μm) manufactured by Waters • UV detection: 246 nm • Column temperature: 40° C. • Flow rate: 1.0 mL/min • Sample cooler: 5° C. • Sample concentration: 1 mg/mL • Mobile phase A: Liquid mixture of 5 mmol/L ammonium formate buffer (pH 6.5)/acetonitrile (9:1) • Mobile phase B: Acetonitrile

[4] = 60° C. (closed system), 4 weeks

SMILES: CCOc1cc2ncc(C#N)c(Nc3ccc(OCc4ccccn4)c(Cl)c3)c2cc1NC(=O)/C=C/CN(C)C [Neratinib]
- brain penetration properties [1]: limited
- effects against brain metastatic cancer (brain metastatic cancer): sufficient effects of these agents could not be obtained

SMILES: CS(=O)(=O)CCNCc1ccc(-c2ccc3ncnc(Nc4ccc(OCc5cccc(F)c5)c(Cl)c4)c3c2)o1 [Lapatinib]
- brain penetration properties [1]: limited
- effects against brain metastatic cancer (brain metastatic cancer): sufficient effects of these agents could not be obtained

SMILES: C=CC(=O)N1C[C@H](n2c(C#CC3CC3)c(C(=O)N[C@H](C)c3ccccc3)c3c(N)ncnc32)C[C@@H]1C [free-form type II crystal of compound (I)] [7-((3R,5S)-1-acryloyl-5-methylpyrrolidin-3-yl)-4-amino-6-(cyclopropylethynyl)-N—((R)-1-phenylethyl)-7H-pyrrolo[2,3-d]pyrimidine-5-carboxamide]
- AUC 0-6 hr increase when the dose was increased from 100 mg/kg to 300 mg/kg [2]: 1.5 times
- Cmax increase when the dose was increased from 100 mg/kg to 300 mg/kg [2]: 1.2 times
- AUC0-6hr ([2]; 100 mg/kg): 5.79 µM·h
- Cmax ([2]; 100 mg/kg): 1880 nM
- Tmax ([2]; 100 mg/kg): 1.50 h
- AUC0-6hr ([2]; 300 mg/kg): 8.53 µM·h
- Cmax ([2]; 300 mg/kg): 2250 nM
- Tmax ([2]; 300 mg/kg): 3.33 h
- hygroscopicity determination ([3]; from mass increase under 95% relative humidity): almost non-hygroscopic
- Weight change rate, Adsorption ([3]; relative humidity 5%): 0.01%
- Weight change rate, Desorption ([3]; relative humidity 5%): 0.01%
- Weight change rate, Adsorption ([3]; relative humidity 20%): 0.02%
- Weight change rate, Desorption ([3]; relative humidity 20%): 0.03%
- Weight change rate, Adsorption ([3]; relative humidity 40%): 0.05%
- Weight change rate, Desorption ([3]; relative humidity 40%): 0.06%
- Weight change rate, Adsorption ([3]; relative humidity 60%): 0.08%
- Weight change rate, Desorption ([3]; relative humidity 60%): 0.08%
- Weight change rate, Adsorption ([3]; relative humidity 80%): 0.10%
- Weight change rate, Desorption ([3]; relative humidity 80%): 0.11%
- Weight change rate, Desorption ([3]; relative humidity 95%): 0.12%
- Amount of related substances after storage (Solid stability test; [4]): 0.12%
- Chemical purity after storage (Solid stability test; [4]): 99.88%
- change in the powder X-ray diffraction pattern (Solid stability test; [4]): no change
- increase in related substances (Solid stability test; [4]): almost no increase
- Amount of related substances before storage (Solid stability test; before storage): 0.13%
- Chemical purity before storage (Solid stability test; before storage): 99.87%
